Assay results published in patent US5336485A, “Method for protecting animals against tacrine induced cytotoxic injury using sterol compounds” (priority 1993, dated 1994).
Counter-ions that a name gives are not always drawn.

How the values were obtained:
liver = assay: Partial liver ischemia/reperfusion-induced injury in rats; type: in vivo, rat
Method: 20 hours prior to global occlusion, one group of 10 rats was provided with 64 mg cholesterol/kg body weight and 100 mg tris succinate/kg body weight by i.p. injection, and another group of 10 rats was provided with 100 mg cholesteryl succinate/kg body weight. A control group of rats was only partially occluded for the one hour period. Ninety percent of the rats pretreated with cholesteryl succinate tris salt survived while only 10% of those pretreated with the combination of cholesterol and tris succinate survived. Table 22 of a partial ischemia study where male Sprague-Dawley rats were subjected to occlusion of the blood supply to the left lateral and median lobes of the liver for 60 minutes followed by reperfusion for 24 hours. During this time, the normal blood supply to the other lobes of the liver was maintained. […] Serum was obtained for AST and ALT measurements.
^a Partial liver ischemia was induced in male Sprague Dawley rats

L1210 leukemia cells = details: 100 mg/kg ip
rat hepatocytes = assay: Intracellular K+ of rat hepatocytes exposed to EMS; type: cell-based
Text: Medzhradsky, Biochem. Med. 13:164 (1975), has noted that the cell's ability to maintain its intracellular concentration of potassium (K^+) is an excellent indicator of the metabolic integrity of the cell. A concentration gradient exists for K^+ with greater concentrations found intracellularly. To maintain this gradient, the cell is dependent on the action of the Na^+ -K^+ ATPase pump and an adequate supply of ATP. As cellular ATP levels decline, the ATPase pump is unable to maintain the gradient resulting in the loss of intracellular K^+ by equilibration with the extracellular space. Because the maintenance of cellular metabolic processes is essential to the continual repair and survival of cells, organ systems, and organisms, the effect of alpha-TS on the metabolic integrity of rat liver cells during a toxic insult was investigated by measuring intracellular K^+ levels. […] At each time-point, rapid separation of viable from non-viable hepatocytes and medium was accomplished by the dibutyl phthalate centrifugation method. Cell viability was monitored hourly by measuring LDH leakage with a Cobas Analyzer and intracellular [K^+ ]with a flame photometer. […] Lipid peroxidation was determined by measuring TBA reactants in the medium. […] Alltech, Avondale, Pa.). […] Following the addition of 0.2 ml 4 M HC1, the neutralized KOH-MeOH extracted with 0.8 ml hexane. […] A standard curve for each tocopherol congener was run with every assay. […] Only viable cells were monitored in the laboratory procedures.

canine hepatocytes = assay: Intracellular K+ of canine hepatocytes exposed to EMS; type: cell-based; details: 25 μM, 50 mM EMS
Text: Medzhradsky, Biochem. Med. 13:164 (1975), has noted that the cell's ability to maintain its intracellular concentration of potassium (K^+) is an excellent indicator of the metabolic integrity of the cell. A concentration gradient exists for K^+ with greater concentrations found intracellularly. To maintain this gradient, the cell is dependent on the action of the Na^+ -K^+ ATPase pump and an adequate supply of ATP. As cellular ATP levels decline, the ATPase pump is unable to maintain the gradient resulting in the loss of intracellular K^+ by equilibration with the extracellular space. Because the maintenance of cellular metabolic processes is essential to the continual repair and survival of cells, organ systems, and organisms, the effect of alpha-TS on the metabolic integrity of rat liver cells during a toxic insult was investigated by measuring intracellular K^+ levels. FIGS. 2a-2b show the response of rat and canine hepatocytes, respectively, exposed to 50 mM EMS. […] The response curves shown in FIGS. 2a and 2b indicate that alpha-TS under physiological conditions can maintain the metabolic integrity of animal hepatocytes during a toxic insult.
Only viable cells were monitored in the laboratory procedures.

male Sprague-Dawley rats = assay: Energy status of rat tissue; type: in vivo; details: 100 mg/kg ip, 24 h
Method: An in vivo experiment was performed to determine the effect of alpha-TS on the energy status of rat tissues. Male Sprague-Dawley rats were administered alpha-TS (100 mg/kg, single ip dose) or olive oil (vehicle only, 0.2 ml, single ip dose). Three rats were used per treatment. The rats fasted for 24 hours after ip dosage prior to sacrifice and analysis of tissues.

central nervous system = assay: CCl4 central nervous system toxicity in rats; type: in vivo, rat; details: pretreatment
[1] = Tissue distribution of alpha-tocopherol and alpha-tocopherol ester in rats; type: in vivo, rat; details: 48 h after single dose
[2] = system: mouse melanoma cells B-16; details: cited from earlier work
[3] = system: mouse neuroblastoma cells NBP2; details: 10 μM; cited from earlier work
[4] = 100 mg/kg ip, 20 hours prior to ischemia

CC(C)CCC[C@@H](C)[C@H]1CC[C@H]2[C@@H]3CC=C4C[C@@H](OC(=O)CCC(=O)O)CC[C@]4(C)[C@H]3CC[C@]12C [Cholesteryl Succinate tris salt]
ALT (liver; 25 mg/kg ip, vehicle 1027±235): 358±38 | ALT (liver; [4]): 554 ± 213 Units/L | AST (liver; [4]): 1800 ± 904 Units/L | ALT (liver; 100 mg/kg ip, during ischemia): 387 ± 155 Units/L | AST (liver; 100 mg/kg ip, during ischemia): 967 ± 68 Units/L | protection in fed and fasted rats (liver; rat, in vivo): Protection was observed for both fed and fasted rats | Survival Time (L1210 leukemia cells): 6.8 ± 0.4 days

Cc1c(C)c2c(c(C)c1OC(=O)CCC(=O)O)CC[C@@](C)(CCC[C@H](C)CCC[C@H](C)CCCC(C)C)O2 [alpha-TS, d-alpha-tocopheryl succinate]
% Initial Intracellular [K+] (rat hepatocytes; 50 mM EMS + 25 μM alpha-TS): 93 ± 11 % Initial | % Initial Intracellular [K+] (rat hepatocytes; 50 mM EMS + 25 μM alpha-TS + 100 μM Bis-(p-nitrophenyl) phosphate): 14 ± 6 % Initial | % Initial Intracellular [K+] (rat hepatocytes; 50 mM EMS + 25 μM alpha-TS + 100 μM Diethyl p-nitrophenyl phosphate): 26 ± 2 % Initial | % Initial Intracellular [K+] (rat hepatocytes; 50 mM EMS, 5 Hrs, concentrations as cell death (Table 15)): 86 ± 6 % Initial | intracellular K+ during EMS insult (rat hepatocytes; rat hepatocytes, 25 μM, 50 mM EMS): no loss of intracellular K+ | intracellular K+ during EMS insult (canine hepatocytes): no loss of intracellular K+ | ATP, Blood (male Sprague-Dawley rats): 647 ± 29 nmol/g | ATP, Brain (male Sprague-Dawley rats): 293 ± 86 nmol/g | ATP, Heart (male Sprague-Dawley rats): 2782 ± 868 nmol/g | ATP, Kidney (male Sprague-Dawley rats): 515 ± 44 nmol/g | ATP, Liver (male Sprague-Dawley rats): 458 ± 57 nmol/g | ATP, Lung (male Sprague-Dawley rats): 418 ± 18 nmol/g | Glucose, Blood (male Sprague-Dawley rats): 4.8 ± 0.3 µmol/g | Glucose, Heart (male Sprague-Dawley rats): 10.1 ± 1.7 µmol/g | Glucose, Kidney (male Sprague-Dawley rats): 3.4 ± 1.1 µmol/g | Glucose, Liver (male Sprague-Dawley rats): 21.7 ± 9.7 µmol/g | Glucose, Lung (male Sprague-Dawley rats): 4.1 ± 0.5 µmol/g | Glycogen, Blood (male Sprague-Dawley rats): 117 ± 26 µmol/g | Glycogen, Brain (male Sprague-Dawley rats): 1400 ± 372 nmol/g | Glycogen, Heart (male Sprague-Dawley rats): 4320 ± 946 nmol/g | Glycogen, Kidney (male Sprague-Dawley rats): 211 ± 44 µmol/g | Glycogen, Liver (male Sprague-Dawley rats): 778 ± 98 µmol/g | Glycogen, Lung (male Sprague-Dawley rats): 634 ± 133 µmol/g | Lactate, Blood (male Sprague-Dawley rats): 1.68 ± .06 µmol/g | Lactate, Brain (male Sprague-Dawley rats): 7.82 ± .20 µmol/g | Lactate, Heart (male Sprague-Dawley rats): 10.84 ± 2.67 µmol/g | Lactate, Kidney (male Sprague-Dawley rats): 3.10 ± .21 µmol/g | Lactate, Liver (male Sprague-Dawley rats): 3.36 ± .20 µmol/g | Lactate, Lung (male Sprague-Dawley rats): 2.24 ± .29 µmol/g | recovery from acute CNS toxic manifestations of CCl4 (central nervous system): several days before rats which are not treated with alpha-TS | alpha-TS detection in tissue [1]: could not be detected | tumor cell growth ([2]; 10 μM): inhibits tumor cell growth | morphological differentiation [2]: induce morphological differentiation | tumor cell growth [3]: inhibits tumor cell growth
